{
  "source": "patent US20120255051A1",
  "about": "“HERBICIDE TOLERANT PLANTS” (priority 2009, published 2012)",
  "tested_on": "Brassica plants comprising mutant AHAS alleles",
  "assay": "Greenhouse post-emergence spraying (10 g a.i./ha): vigor scores",
  "assay_type": "in vivo, Brassica napus",
  "details": "for vigor score Av, post-emergence (1, 2 and 3 weeks after treatment): 10 g a.i./ha",
  "method": "In another experiment, the effect of combining AHAS full knockouts with AHAS missense herbicide tolerant alleles on tolerance to thiencarbazone-methyl pre-planting application and thiencarbazone-methyl post-emergence spraying was tested in the greenhouse. To this end, the Brassica plants identified in Example 1 and 2 were backcrossed two times with an elite parent line, and subsequently selfed twice to obtain homozygous plants (BC2S2). Treatment pre-planting was carried out on the soil just after sowing with a dose of 20 g a.i./ha of thiencarbazone methyl. For assessment of vigor scores, plants were evaluated on a scale of 1 to 9, where 1=dead, 3=poor, 6=some aberrant phenotype and 9=vigorous. The vigor scores are an average of the scores taken at 2, 3 and 4 weeks after treatment. Treatment post-emergence at the first leaf stage was carried out with a dose of 10 g a.i./ha of thiencarbazone-methyl. The vigor scores are an average of the scores taken 1, 2 and 3 weeks after the treatment. The average values (Av) and standard deviations (SD) of the vigor scores are represented in Table 6.",
  "data": [
    {"compound": "COC(=O)c1csc(C)c1S(=O)(=O)NC(=O)n1nc(OC)n(C)c1=O", "note": "[thiencarbazone-methyl, methyl 4-[(4,5-dihydro-3-methoxy-4-methyl-5-oxo-1H-1,2,4-triazol-1-yl)carbonylsulfamoyl]-5-methylthiophene-3-carboxylate]", "values": [
      {"measurement": "vigor score Av, post-emergence (1, 2 and 3 weeks after treatment)", "setting": "AHAS1 +/+, AHAS3 +/+ (HETO108+HETO104 series)", "result": 1.7},
      {"measurement": "vigor score Av, post-emergence (1, 2 and 3 weeks after treatment)", "setting": "AHAS1 +/+, AHAS3 +/+ (HETO108+HETO111 series)", "result": 1.7},
      {"measurement": "vigor score Av, post-emergence (1, 2 and 3 weeks after treatment)", "setting": "AHAS1 +/+, AHAS3 +/+ (HETO112+HETO111 series)", "result": 1.7},
      {"measurement": "vigor score Av, post-emergence (1, 2 and 3 weeks after treatment)", "setting": "AHAS1 +/+, AHAS3 HETO104/HETO104", "result": 1.8},
      {"measurement": "vigor score Av, post-emergence (1, 2 and 3 weeks after treatment)", "setting": "AHAS1 +/+, AHAS3 HETO111/HETO111 (HETO108+HETO111 series)", "result": 3.3},
      {"measurement": "vigor score Av, post-emergence (1, 2 and 3 weeks after treatment)", "setting": "AHAS1 +/+, AHAS3 HETO111/HETO111 (HETO112+HETO111 series)", "result": 3.1},
      {"measurement": "vigor score Av, post-emergence (1, 2 and 3 weeks after treatment)", "setting": "AHAS1 HETO108/HETO108, AHAS3 +/+ (HETO108+HETO104 series)", "result": 3.4},
      {"measurement": "vigor score Av, post-emergence (1, 2 and 3 weeks after treatment)", "setting": "AHAS1 HETO108/HETO108, AHAS3 +/+ (HETO108+HETO111 series)", "result": 3.3},
      {"measurement": "vigor score Av, post-emergence (1, 2 and 3 weeks after treatment)", "setting": "AHAS1 HETO108/HETO108, AHAS3 HETO104/HETO104", "result": 3.8},
      {"measurement": "vigor score Av, post-emergence (1, 2 and 3 weeks after treatment)", "setting": "AHAS1 HETO108/HETO108, AHAS3 HETO111/HETO111", "result": 4.7},
      {"measurement": "vigor score Av, post-emergence (1, 2 and 3 weeks after treatment)", "setting": "AHAS1 HETO112/HETO112, AHAS3 +/+", "result": 1.7},
      {"measurement": "vigor score Av, post-emergence (1, 2 and 3 weeks after treatment)", "setting": "AHAS1 HETO112/HETO112, AHAS3 HETO111/HETO111", "result": 3.6},
      {"measurement": "vigor score Av, post-emergence (1, 2 and 3 weeks after treatment)", "setting": "Elite parent line treated", "result": 1.8},
      {"measurement": "thiencarbazone-methyl tolerance of plants homozygous for a missense allele and a full knock-out allele, versus missense allele with other AHAS gene homozygous wild-type", "setting": "post-emergence spraying, greenhouse", "result": "higher"}
    ]}
  ]
}
